Molecules are shown by their SMILES.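 Grown in 96-well plates, cells were treated for 48 hours with each compound at five concentrations. Insufficient inhibition: endpoint recorded as highest concentration tested. GI50 is the concentration that inhibits growth by half.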 The source made the active and inactive calls. Cut-off read from the data, not from the text of the source: active = GI50 up to about 1.1 µM and inactive = higher. Some results are limits rather than exact numbers.

Holding throughout (assay): NCI tumour cell line growth inhibition, 48 h
Assay [1] concerns TK-10.
The test system of assay [2] is K562.
In assay [3] the test system is OVCAR-3.
Assay [4] relates to SNB-19.
In assay [5] the test system is MDA-MB-231.
For assay [6], the system named is HCC 2998.
The subject of assay [7] is OVCAR-8.
The test system of assay [8] is HL-60.
Assay [9] concerns LOX IMVI.
Assay [10] deals with RXF 393.
Assay [11] deals with 786-0.
The test system of assay [12] is SF-268.
Assay [13] relates to UO-31.
Assay [14] concerns HOP-62.
In assay [15] the test system is M14.
In assay [16] the test system is HCT-15.
Assay [17] relates to IGROV-1.
Assay [18] deals with A549.
Assay [19] relates to MOLT-4.
Assay [20] relates to DLD-1.

For the compound `COc1cc2c(OC)c(c1)CCCC1=CC(=O)C=C(CCC2)C1=O`, the GI50 was > 100 µM (inactive) in assay [1]; 14.6 µM (inactive) in assay [2]; 22.6 µM (inactive) in [3]; 29.4 µM (inactive) in assay [4]; 25.5 µM (inactive) in assay [5]; 43.5 µM (inactive) in [6]. Further, the GI50 in [7] is 20.4 µM (inactive); in assay [8] it was 6.1 µM (inactive); in assay [9] it was 16.6 µM (inactive); in [10] it was 26.7 µM (inactive); in assay [11], 29 µM (inactive); in [12] it was 37.8 µM (inactive). The GI50 in [13] is 43.9 µM (inactive); in [14], 78.7 µM (inactive); in [15], 26.7 µM (inactive); in assay [16] it was 33.6 µM; in [17] it was 40.8 µM (inactive); in [18] it was 58.7 µM (inactive). The GI50 in assay [19] is 2.72 µM (inactive).

With `CCC1(CC)C(=O)NN(C(=O)c2ccccc2)C1=O`, the GI50 in [1], in [2], in [3], in assay [4], in [5] and in assay [6] was > 100 µM (inactive) each time. Moreover, the GI50 in [7], in assay [8], in assay [9], in assay [10], in assay [11] and in assay [12] was > 100 µM (inactive) in each case. Moreover, the GI50 is > 100 µM (inactive) in assay [13]; > 100 µM (inactive) in assay [14]; > 100 µM (inactive) in [15]; over 100 µM in [16]; > 100 µM (inactive) in assay [17]; > 100 µM (inactive) in assay [18]. The GI50 in assay [19] was > 100 µM (inactive).

Turning to `Cn1c(=O)c2[nH]cnc2n(CC(=O)O)c1=O`, the GI50 in assay [1], in assay [2], in assay [3], in assay [4], in [7] and in assay [20] was > 100 µM (inactive) in each case. Further, the GI50 is > 100 µM (inactive) in [11]; > 100 µM (inactive) in [12]; > 100 µM (inactive) in [13]; > 100 µM (inactive) in assay [14]; > 100 µM (inactive) in assay [15]; over 100 µM in assay [16]. The GI50 in [17], in assay [18] and in assay [19] was > 100 µM (inactive) throughout.

For `C=C(C1=CC(=O)C(C)(C)O1)[C@@H]1CC=C([C@@H]2CC[C@H]3[C@@]2(C)CC[C@H]2C(C)(C)C(=O)[C@H](O)C[C@]32C)[C@H](O)O1`, the GI50 in [1] was 1.19 µM (inactive); in [2], 1.71 µM (inactive); in [3], 0.847 µM (active); in assay [4], 10.2 µM (inactive); in assay [5], 2.15 µM (inactive); in [6] it was 2.89 µM (inactive). For the same compound, the GI50 in assay [7] was 2.07 µM (inactive); in assay [8], 2.24 µM (inactive); in [9], 1.81 µM (inactive); in assay [10] it was 1.81 µM (inactive); in assay [11] it was 0.273 µM (active); in [12], 1.88 µM (inactive). Besides, the GI50 was 1.53 µM (inactive) in assay [13]; 3.15 µM (inactive) in assay [14]; 1.58 µM (inactive) in assay [15]; 2.04 µM in [16]; 2.18 µM (inactive) in assay [17]; 13.6 µM (inactive) in assay [18]. Moreover, the GI50 in assay [19] was 0.982 µM (active).

As for `CCCC(=O)Nc1cc(C(=O)N2C[C@@H]3C[C@]34C2=CC(=O)c2[nH]cc(C)c24)n(COC)c1`, the GI50 is 10.7 µM (inactive) in assay [1]; 2.33 µM (inactive) in [2]; 6.81 µM (inactive) in assay [3]; 12.4 µM (inactive) in assay [4]; 8.53 µM (inactive) in assay [5]; 3.28 µM (inactive) in [6]. The GI50 in assay [7] was 1.94 µM (inactive); in assay [8] it was 1.79 µM (inactive); in assay [9], 2.62 µM (inactive); in [10], 1.84 µM (inactive); in assay [11], 5.47 µM (inactive); in assay [12], 1.48 µM (inactive). For the same compound, the GI50 in assay [13] is 8.97 µM (inactive); in assay [14], 14 µM (inactive); in assay [15] it was 12.4 µM (inactive); in assay [16], 15.9 µM; in assay [17], 6.52 µM (inactive); in assay [18] it was 9.75 µM (inactive). Further, the GI50 in assay [19] is 0.807 µM (active).

For the compound `CO/C=C(/C(=O)OC)c1ccccc1COc1cccc(C(F)(F)F)c1`, the GI50 in assay [1] is 3.18 µM (inactive); in assay [2], 3.76 µM (inactive); in assay [3] it was 10.2 µM (inactive); in [4] it was 22.1 µM (inactive); in [5], 7.89 µM (inactive); in assay [6], 10.8 µM (inactive). Moreover, the GI50 was 8.69 µM (inactive) in [7]; < 0.01 µM (active) in assay [8]; 1.16 µM (inactive) in assay [9]; 11.6 µM (inactive) in [10]; 8.09 µM (inactive) in assay [11]; 8.77 µM (inactive) in assay [12]. For the same compound, the GI50 in assay [13] was 4.17 µM (inactive); in assay [14], 12.6 µM (inactive); in assay [15], 68.7 µM (inactive); in [16], 4.19 µM; in [17] it was 4.57 µM (inactive); in [18], 2.91 µM (inactive). In addition, in [19], the GI50 is 1.01 µM (active).

Take `COC(=O)c1c(O)ccc2c1c1c(n2Cc2ccccc2OC)C(=O)c2ccccc2C1=O`: the GI50 in assay [1] was 23.2 µM (inactive); in assay [2], 1.67 µM (inactive); in [3], 10 µM (inactive); in assay [4] it was 27.2 µM (inactive); in assay [5], 13.5 µM (inactive); in assay [6] it was 6.27 µM (inactive). The GI50 in [7] was 4.42 µM (inactive); in assay [8], 2.04 µM (inactive); in assay [9], 10.6 µM (inactive); in [10], 13.1 µM (inactive); in assay [11], 11.4 µM (inactive); in [12] it was 11.6 µM (inactive). For the same compound, the GI50 was 5.42 µM (inactive) in assay [13]; 13.6 µM (inactive) in assay [14]; 8.45 µM (inactive) in assay [15]; 5.16 µM in assay [16]; 12.6 µM (inactive) in [17]; 5.64 µM (inactive) in assay [18]. Besides, the GI50 in [19] was 0.0393 µM (active).

Regarding `N#CCCN(CCC#N)c1ccc(/C=C2\SC(=S)NC2=O)cc1Br`, the GI50 in assay [1] was > 100 µM (inactive); in assay [2], > 100 µM (inactive); in assay [3], > 100 µM (inactive); in [4] it was 23.8 µM (inactive); in assay [5] it was 25.9 µM (inactive); in [6] it was > 100 µM (inactive). The GI50 is 68.5 µM (inactive) in assay [7]; 79.8 µM (inactive) in assay [8]; 23.1 µM (inactive) in assay [9]; 86.3 µM (inactive) in assay [10]; 37.8 µM (inactive) in assay [11]; 20.9 µM (inactive) in [12]. Further, the GI50 in assay [13] was > 100 µM (inactive); in [14] it was 15.3 µM (inactive); in [15], > 100 µM (inactive); in assay [16], over 100 µM; in assay [17], 72.1 µM (inactive); in [18], > 100 µM (inactive). Further, the GI50 in assay [19] is > 100 µM (inactive).

In the case of `COC(=O)C1([C@@H]2C[C@@H](O)[C@]3(C)CC/C=C(\C)CCC[C@H](C)[C@H](O)[C@@H]2O3)CC1`, the GI50 in assay [1] was 57.7 µM (inactive); in [2] it was 34.8 µM (inactive); in [3] it was 51.4 µM (inactive); in assay [4], 46.7 µM (inactive); in [5], 90.2 µM (inactive); in assay [6], 63.1 µM (inactive). The GI50 was 88.9 µM (inactive) in assay [7]; > 100 µM (inactive) in assay [8]; 61.4 µM (inactive) in assay [9]; 52 µM (inactive) in assay [10]; 92.3 µM (inactive) in [11]; 64.7 µM (inactive) in assay [12]. Besides, the GI50 in assay [13] was 23.8 µM (inactive); in assay [14], 76.4 µM (inactive); in [15], 53.3 µM (inactive); in assay [16], 34.9 µM; in [17], 37.3 µM (inactive); in assay [18], 33.9 µM (inactive). Moreover, in assay [19], the GI50 is 26.5 µM (inactive).

For `O=[N+]([O-])c1ccc(N/N=C/c2ccc(OCCCCCCCCCCCO)cc2)c([N+](=O)[O-])c1`, the GI50 was 5.19 µM (inactive) in assay [1]; 1.15 µM (inactive) in assay [2]; 30.3 µM (inactive) in [3]; 6.12 µM (inactive) in assay [4]; 35.2 µM (inactive) in [5]; 4.78 µM (inactive) in assay [6]. Moreover, the GI50 was 2.71 µM (inactive) in assay [7]; 5.56 µM (inactive) in [8]; 7.64 µM (inactive) in assay [9]; 2.07 µM (inactive) in assay [10]; 1.91 µM (inactive) in assay [11]; 2.84 µM (inactive) in assay [12]. Besides, the GI50 is 7.35 µM (inactive) in assay [13]; 4.39 µM (inactive) in assay [14]; 1.39 µM (inactive) in assay [15]; 9.12 µM in [16]; 6.05 µM (inactive) in assay [17]; 5.96 µM (inactive) in assay [18]. Moreover, the GI50 in assay [19] is 29.3 µM (inactive).

Turning to `COc1cc2c(cc1C)NC(=O)/C2=C/c1c(Cl)[nH]c2ccccc12`, the GI50 was 10.4 µM (inactive) in assay [1]; 3.83 µM (inactive) in assay [2]; 2.26 µM (inactive) in assay [3]; 4.5 µM (inactive) in [4]; 3.95 µM (inactive) in assay [5]; 3.89 µM (inactive) in [6]. Further, the GI50 in [7] is 11.8 µM (inactive); in assay [8], 2.39 µM (inactive); in [9] it was 4.48 µM (inactive); in [10], 8.07 µM (inactive); in assay [11] it was 6.21 µM (inactive); in assay [12] it was 4.22 µM (inactive). Moreover, the GI50 in assay [13] is 10.3 µM (inactive); in assay [14], 3.28 µM (inactive); in assay [15], 3.21 µM (inactive); in assay [16], 3.38 µM; in assay [17] it was 3.3 µM (inactive); in [18], 6.05 µM (inactive). The GI50 in assay [19] was 4.05 µM (inactive).

The values are drawn from ChEMBL document CHEMBL1201862, “PubChem BioAssay data set” (2004).
